Assay results: patent publication US20200390889A1, “REMOTELY TRIGGERED THERAPY” (Bambu Vault LLC, priority 2019, published 2020)

What was measured:
[1] = likelihood of association with drug induced liver injury, based upon the known potential of the drug; cited from earlier work
[2] = Percentage of curcumin and Epolight IR 1117 loading / encapsulation determination; type: physicochemical; details: in B-805 PMMA/BMA particles made by Example 13(b)
Description: The UV-VIS-NIR absorbance spectrum of the IR absorbing agent and/or the drug is measured using Shimadzu UV-3600 UV-VIS-NIR Spectrophotometer. The concentration of the IR absorbing agent in the particles is determined from application of Beer's law.

[3] = Leaching (stability) test, protective effect of VTMS shell; type: physicochemical; details: post-coating vs pre-coating B-805 particles; 1% SDS in water, sonicated 90 minutes
Description: Prior to the test, particles were dispersed in water for storage at varying concentrations. Amounts of fluid containing 50 mg of particles—a sample of pre-coating particles and a sample of post-coating particles—were weighed into 15 mL conical centrifuge tubes. The tubes were centrifuged to sediment the particles and supernatant was removed. 3 mL of 1% SDS in water was added to each tube, which were then vortexed to resuspend particles. The tubes containing the particles suspended in SDS solution were placed into a sonicated water bath for 90 minutes. The tubes were then removed and centrifuged to sediment the particles again. The supernatant was retained and filtered through a 0.2 μm syringe filter to remove any remaining particles. Absorption spectra of the supernatants was then measured on a Shimadzu 3600 UV/Vis/NIR spectrophotometer from 400-1300 nm. Molarity of colored components in the solutions and the percentage decrease of absorption between post-coating and pre-coating particles was calculated from the spectra.

[4] = Laser triggered drug release from particles in gelatin; type: physicochemical; details: PMMA beads with 25% VTMS shells in gelatin; Q-switched Lutronic laser 1064 nm, 2.46-5.09 J/cm^2
Description: Procedure: A solution of gelatin was prepared by adding Knox gelatin (1.0 g) to cold water (12.5 g) in a 100 mL glass jar equipped with a magnetic stir bar. The gelatin was stirred 15-30 minutes and then hot water was added (70° C.) until the total weight was 50.0 g. This gelatin was then used in 2.0 gm aliquots. Drug loaded PMMA beads with 25% VTMS shells as prepared in Example 1b above (20-30 mg) were then added to the gelatin solution (2.0 g) and vortexed mixed in a 4 dram vial. The suspension of the tattoo particles in gelatin was then sonicated for 15-30 minutes before transferring to a 5 cm plastic culture dish. The gelatin suspension was spread evenly and allowed to set. It was then covered and placed in a refrigerator a 6° C. until ready for laser exposure.
Laser exposure was accomplished as follows: The cover for the culture dish was removed and a 5 cm clear plastic cover was cut and fit over the gelatin to prevent splatter. The top surface was then completely lasered at 1064 nm with a 5 mm spot using fluences ranging from 2.46 J/cm^2 to 5.09 J/cm^2 using Q-switched Lutronic laser.
After lasering the top surface the culture dish was covered with its lid, turned over and lasered from the opposite side to reach any unexposed beads visible only from the bottom side.
The standard fluence for tattoo removal is 3.51 J/cm^2. […]

[5] = test system: T47D; details: ER+ breast cancer cells, Hu et al. 2018; cited from earlier work
[6] = test system: MCF7; details: MCF7, ER+ breast cancer cells; Hu et al. 2018; cited from earlier work
[7] = test system: MDA-MB-415; details: MDA-MB-415, ER+ breast cancer cells; Hu et al. 2018; cited from earlier work
[8] = test system: MDA-MB-231; details: MDA-MB-231, ER-PR-HER2- cells; Hu et al. 2018; cited from earlier work
[9] = test system: MDA-MD-468; details: MDA-MD-468, ER-PR-HER2- cells; Hu et al. 2018; cited from earlier work
[10] = test system: BT-20; details: BT-20, ER-PR-HER2- cells; Hu et al. 2018; cited from earlier work
[11] = Screening of acrylic polymers and additives for IR absorbing agent stability and retention; type: physicochemical; details: additive within the particles
Description: Various commercially available acrylic polymers were screened for preferred particle performance characteristic such as particle size distribution, IR absorbing agent stability and encapsulation efficiency. […] NeoCryl® B-818, an ethyl acrylate/ethyl methacrylate copolymer, contained a lower hydroxyl value, but was still swellable in low molecular weight alcohols. NeoCryl® B-805, a methyl methacrylate/butyl methacrylate copolymer, had suitably a low hydroxyl value and a high Tg (99° C.) for human body applications.
The loading of IR absorbing agents within the particles is as high as possible without degrading the cohesion of the polymer. The additives that stabilize the IR absorbing agent within the particles have been studied.

[12] = Retention of tetrakis aminium dye during emulsification with different surfactants; type: physicochemical; details: for retention of Epolight 1117 in the particles: during the emulsion and evaporation process
Description: IR absorbing agent weight ratio=4.4:1). The organic phase (polymer and IR absorbing agents dissolved in dichloromethane) was injected directly into the aqueous phase (PVA solution with SDS surfactant) at the tip of the Turrax's roto-stator (i.e. directly into the flow being sheared by the roto-stator). The shear mixing at 8000 RPM was continued for 30 minutes. The resulting mixture was decanted into an open-mouth container and stirred magnetically for 16 hours. A solid suspension of particles containing IR absorbing agent was obtained. The solid suspension was centrifuged at 5000 RPM for 30 minutes and the particles were collected. The collected particles were washed with distilled water by resuspending the particles into distilled water and centrifuging as before to collect the particles. This washing process was repeated three times to remove residual PVA. The resulting MMA/IA/BMA copolymer particles containing IR absorbing agent were air-dried. In the emulsion method of encapsulation, a surfactant is necessary to help keep the emulsion stable. While Aerosol® TR-70 (sodium bis(tridecyl) sulfosuccinate) could be used as an emulsifier to prepare polymer particles encapsulating Epolight™ 1117 tetrakis aminium dye, TR-70 only provided limited stabilization effects on the tetrakis aminium dye. […] Reducing the amount of SDS in the aqueous phase led to lower Epolight™ 1117 retention and larger particle size (Table 5).

[13] = 0.6% surfactant in aqueous phase during emulsification

Row | Structure (SMILES) | Likelihood Score [1] | further results
1 | CCN1CCN(Cc2ccc(Nc3ncc(F)c(-c4cc(F)c5nc(C)n(C(C)C)c5c4)n3)nc2)CC1 [Abemaciclib] | E* | –
2 | CCS(=O)(=O)N1CC(CC#N)(n2cc(-c3ncnc4[nH]ccc34)cn2)C1 [Baricitinib] | E* | –
3 | Cn1cnc2c(F)c(Nc3ccc(Br)cc3F)c(C(=O)NOCCO)cc21 [Binimetinib] | E* | –
4 | COc1cc(Nc2c(C#N)cnc3cc(OCCCN4CCN(C)CC4)c(OC)cc23)c(Cl)cc1Cl [Bosutinib] | E* | –
5 | COc1cc(N2CCC(N3CCN(C)CC3)CC2)ccc1Nc1ncc(Cl)c(Nc2ccccc2P(C)(C)=O)n1 [Brigatinib] | E* | –
6 | COc1cc2nccc(Oc3ccc(NC(=O)C4(C(=O)Nc5ccc(F)cc5)CC4)cc3)c2cc1OC [Cabozantinib] | E* | –
7 | COc1c(OCCCN2CCOCC2)ccc2c1N=C(NC(=O)c1cnc(N)nc1)N1CCN=C21 [Copanlisib] | E* | –
8 | COc1cc(/C=C/C(=O)CC(=O)/C=C/c2ccc(O)c(OC)c2)ccc1O [Curcumin, curcumin] | – | measured encapsulation [2]: 78%; reduction of leaching by VTMS shell [3]: 70%; curcumin released from the particles [4]: about 3 wt. %; IC50 [5]: 2.07 ± 0.08 µM; IC50 [6]: 1.32 ± 0.06 µM; IC50 [7]: 4.69 ± 0.06 µM; IC50 [8]: 11.3 ± 2.13 µM; IC50 [9]: 18.6 ± 3.12 µM; IC50 [10]: 16.2 ± 2.16 µM
9 | Cc1cc(C(C)(C)C)c(O)c(C)c1Cn1c(=O)n(Cc2c(C)cc(C(C)(C)C)c(O)c2C)c(=O)n(Cc2c(C)cc(C(C)(C)C)c(O)c2C)c1=O [Cyanox® 1790, 1,3,5-tris(4-tert-butyl-3-hydroxy-2,6-dimethylbenzyl)-1,3,5-triazine-2,4,6-(1H,3H,5H)-trione] | – | impact on IR absorbing agent stability [11]: positive impact
10 | CC(C)(C)c1nc(-c2cccc(NS(=O)(=O)c3c(F)cccc3F)c2F)c(-c2ccnc(N)n2)s1 [Dabrafenib] | E* | –
11 | COc1cc2ncnc(Nc3ccc(F)c(Cl)c3)c2cc1NC(=O)/C=C/CN1CCCCC1 [Dacomitinib] | E* | –
12 | C[C@H](Nc1ncnc2[nH]cnc12)c1cc2cccc(Cl)c2c(=O)n1-c1ccccc1 [Duvelisib] | E* | –
13 | CC(C)(O)CNc1nc(Nc2ccnc(C(F)(F)F)c2)nc(-c2cccc(C(F)(F)F)n2)n1 [Enasidenib] | E* | –
14 | COC(=O)N[C@@H](C)CNc1nccc(-c2cn(C(C)C)nc2-c2cc(Cl)cc(NS(C)(=O)=O)c2F)n1 [Encorafenib] | E* | –
15 | COc1cc(Nc2ncc(F)c(Nc3ccc4c(n3)N(COP(=O)(O)O)C(=O)C(C)(C)O4)n2)cc(OC)c1OC [Fostamatinib] | E* | –
16 | CCc1nc(C(N)=O)c(Nc2ccc(N3CCC(N4CCN(C)CC4)CC3)c(OC)c2)nc1NC1CCOCC1 [Gilteritinib] | E* | –
17 | CN1CC[C@@H](NC(=O)Nc2ccc(C#N)cc2)C[C@@H]1c1nc2ccccc2[nH]1 [Glasdegib] | E* | –
18 | N#Cc1ccnc(N2C(=O)CC[C@H]2C(=O)N(c2cncc(F)c2)[C@H](C(=O)NC2CC(F)(F)C2)c2ccccc2Cl)c1 [Ivosidenib] | E* | –

Row | Structure (SMILES) | Likelihood Score [1] | further results
19 | CC(C)C[C@H](NC(=O)CNC(=O)c1cc(Cl)ccc1Cl)B(O)O [Ixazomib] | E* | –
20 | O=C(Nc1cnn2ccc(N3CCC[C@@H]3c3cc(F)ccc3F)nc12)N1CC[C@H](O)C1 [Larotrectinib] | E* | –
21 | C[C@H]1Oc2cc(cnc2N)-c2c(nn(C)c2C#N)CN(C)C(=O)c2ccc(F)cc21 [Lorlatinib] | E* | –
22 | CO[C@@H]1[C@H](N(C)C(=O)c2ccccc2)C[C@H]2O[C@]1(C)n1c3ccccc3c3c4c(c5c6ccccc6n2c5c31)C(=O)NC4 [Midostaurin] | E* | –
23 | CCOc1cc2ncc(C#N)c(Nc3ccc(OCc4ccccn4)c(Cl)c3)c2cc1NC(=O)/C=C/CN(C)C [Neratinib] | E* | –
24 | COC(=O)c1ccc2c(c1)NC(=O)/C2=C(\Nc1ccc(N(C)C(=O)CN2CCN(C)CC2)cc1)c1ccccc1 [Nintedanib] | E* | –
25 | NC(=O)c1cccc2cn(-c3ccc([C@@H]4CCCNC4)cc3)nc12 [Niraparib] | E* | –
26 | CC(=O)c1c(C)c2cnc(Nc3ccc(N4CCNCC4)cn3)nc2n(C2CCCC2)c1=O [Palbociclib] | E* | –
27 | Cc1ccc(C(=O)Nc2ccc(CN3CCN(C)CC3)c(C(F)(F)F)c2)cc1C#Cc1cnc2cccnn12 [Ponatinib] | E* | –
28 | CNCc1ccc(-c2[nH]c3cc(F)cc4c3c2CCNC4=O)cc1 [Rucaparib] | D* | –
29 | N#CC[C@H](C1CCCC1)n1cc(-c2ncnc3[nH]ccc23)cn1 [Ruxolitinib] | E* | –
30 | CCCCCCCCCCCCOS(=O)(=O)[O-].[Na+] [SDS, sodium dodecyl sulfate] | – | % Epolight 1117 Retention ([12]; 0.2% surfactant in aqueous phase during emulsification): 74.97%; % Epolight 1117 Retention ([12]; 0.4% surfactant in aqueous phase during emulsification): 80.17%; % Epolight 1117 Retention [12, 13]: 82.96%; retention of Epolight 1117 in the particles [12]: 85-90%
31 | Cc1c(C(=O)Nc2ccc(N3C[C@@H](C)O[C@@H](C)C3)nc2)cccc1-c1ccc(OC(F)(F)F)cc1 [Sonidegib] | E* | –
32 | CCCCCCCCCCCCCOC(=O)CC(C(=O)OCCCCCCCCCCCCC)S(=O)(=O)O.[Na] (centres unmarked) [TR-70, sodium bis(tridecyl) sulfosuccinate] | – | % Epolight 1117 Retention [12, 13]: 51.70%; retention of Epolight 1117 in the particles [12]: 50%
33 | Cn1ncnc1[C@H]1c2n[nH]c(=O)c3cc(F)cc(c23)N[C@@H]1c1ccc(F)cc1 [Talazoparib] | E* | –
34 | COc1cc2c(Nc3ccc(Br)cc3F)ncnc2cc1OCC1CCN(C)CC1 [Vandetanib] | E* | –
35 | CCCS(=O)(=O)Nc1ccc(F)c(C(=O)c2c[nH]c3ncc(-c4ccc(Cl)cc4)cc23)c1F [Vemurafenib] | E* | –
